In patent US20230165831A1, “METHOD AND COMPOSITION FOR RENDERING CANCER CELLS SUSCEPTIBLE TO TREATMENT BY TARGETED ONCOGENETIC DRIVERS” (IMPACT BIOLIFE SCIENCE, INC., priority 2021, published 2023):
Read-outs that look alike come from different tables or passages of the source.

Columns and labels:
[1] = test system: pancreatic cancer line Capan-1 cells; experiment: CTG (CellTiter-Glo) cell viability assay, 6×6 combo matrix, 72 h, Capan-1; assay type: cell-based; settings: for Relatively Cell inhibition of vehicle control(%): Capan-1
Procedure: To measure the cell inhibition effect of compounds and synergy effect of test articles on ten (10) cell lines using standard CTG assay.
b. A549, T47D, SK-OV-3, MKN45, SK-Hep-1, HT-29, Capan-1, 786-O and LNCaP cell line, for compounds and vehicle groups, the seeding density of cell lines is 3000 cells/80 µL per well. For blank groups, add 100 µL medium. For PBS groups, add 100 µL PBS.
8) Incubate the U87MG, A549, T47D, SK-OV-3, MKN45, SK-Hep-1, HT-29, Capan-1, 786-O and LNCaP cells overnight at 37° C./5% CO2.
5) Incubate the plates at 37° C./5% CO2 for 72 hours.
6) Read plates in Envision.

[2] = test system: prostate adenocarcinoma line LNCap cells; experiment: CTG (CellTiter-Glo) cell viability assay, 6×6 combo matrix, 72 h, LNCaP; settings: Homo sapiens, LNCaP;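 further: luminescence signal read after adding CellTiter-Glo reagent, with cells exposed to compounds for 72 h at 37 °C under 5% CO2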
[3] = test system: lung adenocarcinoma line A549 cells; experiment: CTG (CellTiter-Glo) cell viability assay, 6×6 combo matrix, 72 h, A549; settings: for Relatively Cell inhibition of vehicle control(%): A549;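 on all read-outs here: luminescent ATP readout with CellTiter-Glo after compound exposure, used to assess growth inhibition and combination synergy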
[4] = test system: colorectal cancer line HT29 cells; experiment: CTG (CellTiter-Glo) cell viability assay, 6×6 combo matrix, 72 h, HT29; settings: HT29;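 further: cells exposed to compounds for 72 hours at 37 °C under 5% CO2, then viability read as luminescence after adding CellTiter-Glo Reagent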
[5] = test system: kidney cancer line 786-O cells; experiment: CTG (CellTiter-Glo) cell viability assay, 6×6 combo matrix, 72 h, 786-O; settings: Homo sapiens;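 further: luminescence read-out after adding CellTiter-Glo reagent, with cells incubated at 37 °C under 5% CO2 during compound exposure, part of a ten cell line synergy study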
[6] = Homo sapiens, CAPAN-1, read-out: inhibition rate
[7] = Homo sapiens, A549, read-out: Relatively Cell inhibition of vehicle control(%)

For `O=c1c(O)c(-c2cc(O)c(O)c(O)c2)oc2cc(O)cc(O)c12` [myricetin], the inhibition at 4 µM [1, 6] was 6.24%, the inhibition at 100 µM [1, 6] was 23.3% and the “Relatively Cell inhibition of vehicle control(%)” value ([1]; Myr 4 pM only (topotecan matrix)) was 0.67%. For the same compound, the “Relatively Cell inhibition of vehicle control(%)” value ([1]; Myr 20 pM only (doxorubicin matrix)) was 11.98%, the “Relatively Cell inhibition of vehicle control(%)” value ([1]; Myr 20 pM only (topotecan matrix)) was 5.10% and the “Relatively Cell inhibition of vehicle control(%)” value ([1]; Myr 100 pM only (doxorubicin matrix)) was 30.94%. For the same compound, the “Relatively Cell inhibition of vehicle control(%)” value ([1]; Myr 0.8 µM only (cisplatin matrix)) was 1.28%, the “Relatively Cell inhibition of vehicle control(%)” value ([1]; Myr 0.8 µM only (doxorubicin matrix)) was 7.91% and the “Relatively Cell inhibition of vehicle control(%)” value ([1]; Myr 0.8 µM only (taxol matrix)) was 3.71%. For the same compound, the “Relatively Cell inhibition of vehicle control(%)” value ([1]; Myr 0.8 µM only (topotecan matrix)) was -6.16%, the “Relatively Cell inhibition of vehicle control(%)” value ([1]; Myr 4 µM only (cisplatin matrix)) was 6.73% and the “Relatively Cell inhibition of vehicle control(%)” value ([1]; Myr 4 µM only (taxol matrix)) was 7.41%. The “Relatively Cell inhibition of vehicle control(%)” value ([1]; Myr 20 µM only (cisplatin matrix)) was 10.48%, the “Relatively Cell inhibition of vehicle control(%)” value ([1]; Myr 20 µM only (taxol matrix)) was 9.11% and the “Relatively Cell inhibition of vehicle control(%)” value ([1]; Myr 100 µM only (cisplatin matrix)) was 31.40%. For the same compound, the “Relatively Cell inhibition of vehicle control(%)” value ([1]; Myr 100 µM only (taxol matrix)) was 30.66%, the inhibition at 0.8 µM ([2]; read-out: Relatively Cell inhibition of vehicle control(%), myricetin 0.8 µM only (cisplatin plate)) was -1.65% and the inhibition at 0.8 µM ([2]; read-out: Relatively Cell inhibition of vehicle control(%), myricetin 0.8 µM only (doxorubicin plate)) was -0.32%. The inhibition at 0.8 µM ([2]; read-out: Relatively Cell inhibition of vehicle control(%), myricetin 0.8 µM only (taxol plate)) was -2.06%, the inhibition at 0.8 µM ([2]; read-out: Relatively Cell inhibition of vehicle control(%), myricetin 0.8 µM only (topotecan plate)) was -2.79% and the inhibition at 4 µM ([2]; read-out: Relatively Cell inhibition of vehicle control(%), myricetin 4 µM only (cisplatin plate)) was 0.26%. The inhibition at 4 µM ([2]; read-out: Relatively Cell inhibition of vehicle control(%), myricetin 4 µM only (doxorubicin plate)) was -3.26%, the inhibition at 4 µM ([2]; read-out: Relatively Cell inhibition of vehicle control(%), myricetin 4 µM only (taxol plate)) was -5.5% and the inhibition at 4 µM ([2]; read-out: Relatively Cell inhibition of vehicle control(%), myricetin 4 µM only (topotecan plate)) was 8.5%. The inhibition at 20 µM ([2]; read-out: Relatively Cell inhibition of vehicle control(%), myricetin 20 µM only (cisplatin plate)) was -3.11%, the inhibition at 20 µM ([2]; read-out: Relatively Cell inhibition of vehicle control(%), myricetin 20 µM only (doxorubicin plate)) was -2.66% and the inhibition at 20 µM ([2]; read-out: Relatively Cell inhibition of vehicle control(%), myricetin 20 µM only (taxol plate)) was 4.8%. For the same compound, the inhibition at 20 µM ([2]; read-out: Relatively Cell inhibition of vehicle control(%), myricetin 20 µM only (topotecan plate)) was 6.5%, the inhibition at 100 µM ([2]; read-out: Relatively Cell inhibition of vehicle control(%), myricetin 100 µM only (cisplatin plate)) was 27.2% and the inhibition at 100 µM ([2]; read-out: Relatively Cell inhibition of vehicle control(%), myricetin 100 µM only (doxorubicin plate)) was 21.1%. It also gave an inhibition at 100 µM ([2]; read-out: Relatively Cell inhibition of vehicle control(%), myricetin 100 µM only (taxol plate)) of 31.4%, an inhibition at 100 µM ([2]; read-out: Relatively Cell inhibition of vehicle control(%), myricetin 100 µM only (topotecan plate)) of 30.1% and an inhibition at 0.8 µM [3, 7] of -3.15%. It also gave an inhibition at 4 µM [3, 7] of 0.85%, an inhibition at 20 µM [3, 7] of 7.42% and an inhibition at 100 µM [3, 7] of 40.3%. For the same compound, the “Relatively Cell inhibition of vehicle control(%)” value ([3]; Myr 0.8 µM only (taxol matrix)) was -0.98%, the “Relatively Cell inhibition of vehicle control(%)” value ([3]; Myr 4 µM only (taxol matrix)) was 3.22% and the “Relatively Cell inhibition of vehicle control(%)” value ([3]; Myr 20 µM only (taxol matrix)) was 9.01%. For the same compound, the “Relatively Cell inhibition of vehicle control(%)” value ([3]; Myr 100 µM only (taxol matrix)) was 41.11%, the “Relatively Cell inhibition of vehicle control(%)” value ([4]; Myr 0.8 µM only (Cis 0)) was 3.87% and the “Relatively Cell inhibition of vehicle control(%)” value ([4]; Myr 0.8 µM only (Dox 0)) was -1.09%. The “Relatively Cell inhibition of vehicle control(%)” value ([4]; Myr 0.8 µM only (Tax 0)) was -1.36%, the “Relatively Cell inhibition of vehicle control(%)” value ([4]; Myr 0.8 µM only (Top 0)) was -0.48% and the “Relatively Cell inhibition of vehicle control(%)” value ([4]; Myr 4 µM only (Cis 0)) was 6.56%. For the same compound, the “Relatively Cell inhibition of vehicle control(%)” value ([4]; Myr 4 µM only (Dox 0)) was -0.67%, the “Relatively Cell inhibition of vehicle control(%)” value ([4]; Myr 4 µM only (Tax 0)) was 0.80% and the “Relatively Cell inhibition of vehicle control(%)” value ([4]; Myr 4 µM only (Top 0)) was 3.33%. The “Relatively Cell inhibition of vehicle control(%)” value ([4]; Myr 20 µM only (Cis 0)) was 24.55%, the “Relatively Cell inhibition of vehicle control(%)” value ([4]; Myr 20 µM only (Dox 0)) was 23.37% and the “Relatively Cell inhibition of vehicle control(%)” value ([4]; Myr 20 µM only (Tax 0)) was 32.84%. For the same compound, the “Relatively Cell inhibition of vehicle control(%)” value ([4]; Myr 20 µM only (Top 0)) was 24.77%, the “Relatively Cell inhibition of vehicle control(%)” value ([4]; Myr 100 µM only (Cis 0)) was 90.42% and the “Relatively Cell inhibition of vehicle control(%)” value ([4]; Myr 100 µM only (Dox 0)) was 74.39%. The “Relatively Cell inhibition of vehicle control(%)” value ([4]; Myr 100 µM only (Tax 0)) was 88.39%, the “Relatively Cell inhibition of vehicle control(%)” value ([4]; Myr 100 µM only (Top 0)) was 87.04% and the inhibition at 0.8 µM ([5]; 786-0, read-out: Relatively Cell inhibition of vehicle control, myricetin 0.8 µM only (cisplatin table)) was 0.79%. The inhibition at 0.8 µM ([5]; 786-0, read-out: Relatively Cell inhibition of vehicle control, myricetin 0.8 µM only (doxorubicin table)) was 0.86%, the inhibition at 0.8 µM ([5]; 786-0, read-out: Relatively Cell inhibition of vehicle control, myricetin 0.8 µM only (taxol table)) was 0.33% and the inhibition at 0.8 µM ([5]; 786-0, read-out: Relatively Cell inhibition of vehicle control, myricetin 0.8 µM only (topotecan table)) was 0.12%. It also gave an inhibition at 4 µM ([5]; 786-0, read-out: Relatively Cell inhibition of vehicle control, myricetin 4 µM only (cisplatin table)) of 2.54%, an inhibition at 4 µM ([5]; 786-0, read-out: Relatively Cell inhibition of vehicle control, myricetin 4 µM only (doxorubicin table)) of 4.47% and an inhibition at 4 µM ([5]; 786-0, read-out: Relatively Cell inhibition of vehicle control, myricetin 4 µM only (taxol table)) of 2.6%. The inhibition at 4 µM ([5]; 786-0, read-out: Relatively Cell inhibition of vehicle control, myricetin 4 µM only (topotecan table)) was 4.03%, the inhibition at 20 µM ([5]; 786-0, read-out: Relatively Cell inhibition of vehicle control, myricetin 20 µM only (cisplatin table)) was 10.8% and the inhibition at 20 µM ([5]; 786-0, read-out: Relatively Cell inhibition of vehicle control, myricetin 20 µM only (doxorubicin table)) was 11.2%. The inhibition at 20 µM ([5]; 786-0, read-out: Relatively Cell inhibition of vehicle control, myricetin 20 µM only (taxol table)) was 9.84% and the inhibition at 20 µM ([5]; 786-0, read-out: Relatively Cell inhibition of vehicle control, myricetin 20 µM only (topotecan table)) was 10.4%.
